US20150374673A1, “Combination Therapy for the Treatment of Nosocomial Pneumonia” (priority 2013, published 2015)
Where two headings read alike, the source gives them in different places.

How the values were obtained:
P. aeruginosa [1] = test: In vivo efficacy, ceftazidime human simulated regimen, neutropenic lung infection model (ICR mice); set-up: species or system Pseudomonas aeruginosa; settings: 24 h
Description: Groups of mice were administered the ceftazidime regimen beginning two hours after the initiation of infection. All doses were administered as 0.2 mL subcutaneous injections and consisted of three 8-hour dosing intervals (i.e. 24 hours). To serve as control animals, an additional group of mice were administered normal saline at the same volume, route, and frequency as the treatment regimen. Harvesting and processing of lungs from each animal was done as previously described and efficacy was defined as the change in bacterial density, calculated as the change in log10 bacterial CFU obtained for treated mice after 24 h from that of that starting densities observed in 0 h control animals.

E. coli [2] = test: Initial MIC, microbroth dilution (CLSI), avibactam 4 mg/L; assay type: cell-based; settings: Escherichia coli, read-out: MIC
From the text: (§1) All MIC determinations including those performed in the checkerboard assay were done in cation-adjusted Mueller-Hinton broth (purchased from Becton Dickinson, Oxford UK). […]

E. faecalis = test: as above; assay type: cell-based
From the text: as §1

S. aureus = test: Checkerboard assay, mean FICI; assay type: cell-based
Description: (§2) All MIC determinations including those performed in the checkerboard assay were done in cation-adjusted Mueller-Hinton broth (purchased from Becton Dickinson, Oxford UK).
(§3) Initial MIC data were determined by microbroth dilution methods as recommended by CLSI (2012b). Checkerboards were made in accordance with the method given by Pillai et. al., ? Antimicrobial Combinations in Antibiotics, LABORATORY MEDICINE (Lorian Ed., 3rd Ed. (2003)) p. 365-440 as per standard microbroth dilution tests but with agents in combination. […] A final avibactam concentration of 4 mg/L was used throughout the study. Antibacterial agents were combined into microtitre plates using the Evolution III liquid handling system.
(§4) Checkerboard plates were inoculated and incubated in accordance with CLSI guidelines (2012b) at 35±2° C. in ambient air for 16-20 h. MICs were recorded the following day as the lowest concentration or combination of concentrations required to inhibit all visible growth. From the MIC data, FICIs were calculated for each checkerboard according to the method of Meletiadis et. al., Defining Fractional Inhibitory Concentration Index Cutoffs for Additive Interactions Based on Self-Drug Additive Combinations, Monte Carlo Simulation Analysis and in vitro-in vivo Correlation Data for Antifungal Drug Combinations Against Aspergillus fumigatus, AAC 54:602-09 (2010).
(§5) FICI=FICA+FICB=(CA/MICA)+(CB/MICB)
(§6) As each checkerboard gives a number of FICI values, an arithmetic mean is calculated from all values to give the mean FICI for two agents combined against one isolate. Mean FICIs were interpreted by the following criteria given by Odds (2003) which are now the accepted criteria by most journals: […]

E. coli [3] = test: Checkerboard assay, mean FICI; assay type: cell-based
Description: as §2, §3, §4, §5, §6

P. aeruginosa [4] = test: Checkerboard assay, mean FICI; assay type: cell-based
Description: as §2, §3, §4, §5, §6

K. pneumoniae = test: Checkerboard assay, mean FICI; assay type: cell-based
Description: as §2, §3, §4, §5, §6

E. cloacae = test: Checkerboard assay, mean FICI; assay type: cell-based
Description: as §2, §3, §4, §5, §6

## CC(C)(O/N=C(\C(=O)N[C@@H]1C(=O)N2C(C(=O)[O-])=C(C[n+]3ccccc3)CS[C@H]12)c1csc(N)n1)C(=O)O [ceftazidime, (6R,7R)-7-[[(2Z)-2-(2-amino-1,3-thiazol-4-yl)-2-(1-hydroxy-2-methyl-1-oxopropan-2-yl)oxyiminoacetyl]amino]-8-oxo-3-(pyridin-1-ium-1-ylmethyl)-5-thia-1-azabicyclo[4.2.0]oct-2-ene-2-carboxylate pentahydrate]
P. aeruginosa [1]; isolate PSA 1-25, control 0 h 6.21, 24 h 10.01
  Change log CFU Mean: 6.42 log CFU
P. aeruginosa [1]; isolate PSA 3-9, control 0 h 6.45, 24 h 7.77
  Change log CFU Mean: 6.48 log CFU
P. aeruginosa [1]; isolate PSA 4-32, control 0 h 5.56, 24 h 9.34
  Change log CFU Mean: 3.57 log CFU
P. aeruginosa [1]; isolate PSA 4-36, control 0 h 6.53, 24 h 9.72
  Change log CFU Mean: 5.01 log CFU
P. aeruginosa [1]; isolate PSA 4-84, control 0 h 6.16, 24 h 9.66
  Change log CFU Mean: 4.88 log CFU
P. aeruginosa [1]; isolate PSA 8-16, control 0 h 5.93, 24 h 9.94
  Change log CFU Mean: 5.38 log CFU
P. aeruginosa [1]; isolate PSA 22, control 0 h 5.99, 24 h 9.15
  Change log CFU Mean: 4.83 log CFU
P. aeruginosa [1]; isolate PSA 28-19, control 0 h 6.46, 24 h 9.8
  Change log CFU Mean: 5.07 log CFU
P. aeruginosa [1]; isolate PSA 37-8, control 0 h 6.02, 24 h 8.26
  Change log CFU Mean: 3.8 log CFU
E. coli [2]; isolate 5 E. coli CTX-M-15
  MIC: 64 µg/mL
E. coli [2]; isolate 6 E. coli TEM-4
  MIC: 8 µg/mL
E. coli [2]; isolate 7 E. coli SHV-12
  MIC: 16 µg/mL
E. coli [2]; isolate 8 E. coli SHV-2
  MIC: 1 µg/mL
E. faecalis; Enterococcus faecalis
  MIC: 256 µg/mL
E. faecalis; Enterococcus faecalis, isolate 25 E. faecalis Basal MICs, read-out: MIC
  MIC: > 512 µg/mL
E. faecalis; isolate 27 E. faecalis Basal MICs
  MIC: 256 µg/mL
S. aureus; with Lev, isolate 22 S. aureus Basal MICs
  Mean FICI: 0.98
S. aureus; with Lev, isolate 23 S. aureus Basal MICs, Penicillinase+
  Mean FICI: 1.46
S. aureus; with Lev, isolate 24 S. aureus Basal MICs, Penicillinase +
  Mean FICI: 1.21
S. aureus; with Lzd, isolate 22 S. aureus Basal MICs
  Mean FICI: 1.43
S. aureus; with Lzd, isolate 23 S. aureus Basal MICs, Penicillinase+
  Mean FICI: 1.10
S. aureus; with Lzd, isolate 24 S. aureus Basal MICs, Penicillinase +
  Mean FICI: 1.32
S. aureus; with Tig, isolate 22 S. aureus Basal MICs
  Mean FICI: 1.13
S. aureus; with Tig, isolate 23 S. aureus Basal MICs, Penicillinase+
  Mean FICI: 1.27
S. aureus; with Tig, isolate 24 S. aureus Basal MICs, Penicillinase +
  Mean FICI: 1.11
S. aureus; with Tob, isolate 22 S. aureus Basal MICs
  Mean FICI: 1.60
S. aureus; with Tob, isolate 23 S. aureus Basal MICs, Penicillinase+
  Mean FICI: 0.86
S. aureus; with Tob, isolate 24 S. aureus Basal MICs, Penicillinase +
  Mean FICI: 0.84
S. aureus; with Van, isolate 22 S. aureus Basal MICs
  Mean FICI: 1.23
S. aureus; with Van, isolate 23 S. aureus Basal MICs, Penicillinase+
  Mean FICI: 0.99
S. aureus; with Van, isolate 24 S. aureus Basal MICs, Penicillinase +
  Mean FICI: 1.24
E. coli [3]; with Col, isolate 4 E. coli Basal MICs
  Mean FICI: 1.35
E. coli [3]; with Col, isolate 5 E. coli CTX-M-15
  Mean FICI: 1.23
E. coli [3]; with Col, isolate 6 E. coli TEM-4
  Mean FICI: 1.26
E. coli [3]; with Col, isolate 7 E. coli SHV-12
  Mean FICI: 1.66
E. coli [3]; with Col, isolate 8 E. coli SHV-2
  Mean FICI: 1.54
E. coli [3]; with Lev, isolate 5 E. coli CTX-M-15
  Mean FICI: 1.05
E. coli [3]; with Lev, isolate 6 E. coli TEM-4
  Mean FICI: 1.05
E. coli [3]; with Lev, isolate 7 E. coli SHV-12
  Mean FICI: 1.18
E. coli [3]; with Lev, isolate 8 E. coli SHV-2
  Mean FICI: 1.11
E. coli [3]; with Tig, isolate 4 E. coli Basal MICs
  Mean FICI: 1.41
E. coli [3]; with Tig, isolate 5 E. coli CTX-M-15
  Mean FICI: 1.12
E. coli [3]; with Tig, isolate 6 E. coli TEM-4
  Mean FICI: 1.27
E. coli [3]; with Tig, isolate 7 E. coli SHV-12
  Mean FICI: 0.95
E. coli [3]; with Tig, isolate 8 E. coli SHV-2
  Mean FICI: 1.10
E. coli [3]; with Tob, isolate 5 E. coli CTX-M-15
  Mean FICI: 1.05
E. coli [3]; with Tob, isolate 6 E. coli TEM-4
  Mean FICI: 0.99
E. coli [3]; with Tob, isolate 7 E. coli SHV-12
  Mean FICI: 1.19
E. coli [3]; with Tob, isolate 8 E. coli SHV-2
  Mean FICI: 0.91
P. aeruginosa [4]; with Col, isolate 16 P. aeruginosa Basal MICs
  Mean FICI: 1.24
P. aeruginosa [4]; with Col, isolate 17 P. aeruginosa Derepressed AmpC
  Mean FICI: 1.21
P. aeruginosa [4]; with Col, isolate 18 P. aeruginosa Derepressed AmpC
  Mean FICI: 1.23
P. aeruginosa [4]; with Col, isolate 19 P. aeruginosa PER
  Mean FICI: 1.43
P. aeruginosa [4]; with Col, isolate 20 P. aeruginosa KPC-2
  Mean FICI: 1.21
P. aeruginosa [4]; with Col, isolate 21 P. aeruginosa KPC-2
  Mean FICI: 1.34
P. aeruginosa [4]; with Lev, isolate 16 P. aeruginosa Basal MICs
  Mean FICI: 1.19
P. aeruginosa [4]; with Lev, isolate 17 P. aeruginosa Derepressed AmpC
  Mean FICI: 1.10
P. aeruginosa [4]; with Lev, isolate 18 P. aeruginosa Derepressed AmpC
  Mean FICI: 1.21
P. aeruginosa [4]; with Lev, isolate 19 P. aeruginosa PER
  Mean FICI: 0.99
P. aeruginosa [4]; with Lev, isolate 20 P. aeruginosa KPC-2
  Mean FICI: 1.13
P. aeruginosa [4]; with Lev, isolate 21 P. aeruginosa KPC-2
  Mean FICI: 1.12
P. aeruginosa [4]; with Tig, isolate 16 P. aeruginosa Basal MICs
  Mean FICI: 1.05
P. aeruginosa [4]; with Tig, isolate 17 P. aeruginosa Derepressed AmpC
  Mean FICI: 1.23
P. aeruginosa [4]; with Tig, isolate 18 P. aeruginosa Derepressed AmpC
  Mean FICI: 1.15
P. aeruginosa [4]; with Tig, isolate 19 P. aeruginosa PER
  Mean FICI: 1.13
P. aeruginosa [4]; with Tig, isolate 20 P. aeruginosa KPC-2
  Mean FICI: 1.40
P. aeruginosa [4]; with Tig, isolate 21 P. aeruginosa KPC-2
  Mean FICI: 1.23
P. aeruginosa [4]; with Tob, isolate 16 P. aeruginosa Basal MICs
  Mean FICI: 1.11
P. aeruginosa [4]; with Tob, isolate 17 P. aeruginosa Derepressed AmpC
  Mean FICI: 1.05
P. aeruginosa [4]; with Tob, isolate 18 P. aeruginosa Derepressed AmpC
  Mean FICI: 0.89
P. aeruginosa [4]; with Tob, isolate 19 P. aeruginosa PER
  Mean FICI: 0.70
P. aeruginosa [4]; with Tob, isolate 20 P. aeruginosa KPC-2
  Mean FICI: 0.97
P. aeruginosa [4]; with Tob, isolate 21 P. aeruginosa KPC-2
  Mean FICI: 0.97
K. pneumoniae; with Col, isolate 10 K. pneumoniae TEM-4
  Mean FICI: 0.85
K. pneumoniae; with Col, isolate 11 K. pneumoniae CTX-M-15
  Mean FICI: 1.54
K. pneumoniae; with Col, isolate 12 K. pneumoniae SHV-12
  Mean FICI: 1.40
K. pneumoniae; with Col, isolate 14 K. pneumoniae KPC-3
  Mean FICI: 1.05
K. pneumoniae; with Lev, isolate 9 K. pneumoniae Basal MICs
  Mean FICI: 0.96
K. pneumoniae; with Lev, isolate 10 K. pneumoniae TEM-4
  Mean FICI: 1.13
K. pneumoniae; with Tig, isolate 11 K. pneumoniae CTX-M-15
  Mean FICI: 0.94
K. pneumoniae; with Tig, isolate 12 K. pneumoniae SHV-12
  Mean FICI: 0.97
K. pneumoniae; with Tig, isolate 13 K. pneumoniae KPC-3
  Mean FICI: 1.99
K. pneumoniae; with Tig, isolate 14 K. pneumoniae KPC-3
  Mean FICI: 0.74
K. pneumoniae; with Tob, isolate 9 K. pneumoniae Basal MICs
  Mean FICI: 1.55
K. pneumoniae; with Tob, isolate 10 K. pneumoniae TEM-4
  Mean FICI: 0.64
K. pneumoniae; with Tob, isolate 11 K. pneumoniae CTX-M-15
  Mean FICI: 1.05
K. pneumoniae; with Tob, isolate 12 K. pneumoniae SHV-12
  Mean FICI: 1.04
K. pneumoniae; with Tob, isolate 13 K. pneumoniae KPC-3
  Mean FICI: 1.12
K. pneumoniae; with Tob, isolate 14 K. pneumoniae KPC-3
  Mean FICI: 0.91
K. pneumoniae; with Tob, isolate 15 K. pneumoniae KPC-2
  Mean FICI: 1.05
E. cloacae; with Col, isolate 2 E. cloacae Derepressed AmpC
  Mean FICI: 1.54
E. cloacae; with Col, isolate 3 E. cloacae Derepressed AmpC
  Mean FICI: 1.12
E. cloacae; with Lev, isolate 2 E. cloacae Derepressed AmpC
  Mean FICI: 0.99
E. cloacae; with Lev, isolate 3 E. cloacae Derepressed AmpC
  Mean FICI: 0.81
E. cloacae; with Tig, isolate 2 E. cloacae Derepressed AmpC
  Mean FICI: 0.93
E. cloacae; with Tig, isolate 3 E. cloacae Derepressed AmpC
  Mean FICI: 1.05
E. cloacae; with Tob, isolate 3 E. cloacae Derepressed AmpC
  Mean FICI: 0.73
